Laboratory results: patent US9125352B2, “Method for maturing and synchronizing conifer somatic embryos” (SweTree Technologies AB, priority 2010, dated 2015)

Key:
[1] = tested on: embryogenic cells, cell-line 06:28:05; assay: Comparison of inositol with other sugar alcohols and with sucrose on solid DKM+ABA maturation medium (Example 3); format: cell-based, Norway spruce; details: for Plates with 10 high quality embryos: addition to standard medium: 0.25 M (or 0.125 M + 0.125 M), three plates of 1.0-1.5 g cells per treatment
Text: The action of 0.25, M inositol in improving somatic embryo quality is likely to be partly osmotic, partly nutritional, with cell signaling effects also involved. The inventors tested whether 0.25, M inositol could be replaced with 0.25, M of other sugar alcohols (mannitol and sorbitol) or 0.25, M extra sucrose by spreading 1.0, to 1.5, g fresh weight of embryogenic cells, cell-line 06:28:05, on each of six plates of solid DKM+ABA maturation medium for continued growth and development over four weeks, with one subculture after 2, weeks. The cells were then subcultured onto three plates each (1.0-1.5, g cells per plate) of medium containing in addition either a) 0.25, M inositol, or b) 0.125, M mannitol and 0.125, M sorbitol, or c) 0.25, M sucrose. Control cells continued on standard medium. After three weeks, embryos of good quality were transferred to germination medium, ten embryos per petri dish, as a rough quantitative estimate of quality.

[2] = tested on: embryos of cell-line 28:05; assay: Growth of germinated inositol-treated embryos in stonewool pots for three months (Example 5); format: in vivo, Norway spruce
Protocol: Embryos of cell-line 28:05, treated with 0.25, M inositol and germinated in vitro as described above were grown on in stonewool in plastic pots 8×8×10, cm with standard commercial mineral nutrition in a growth chamber in continuous light at 20° C. for three months.

[3] = tested on: Norway spruce embryos, cell-lines 95:61:21 (61:21), 19:01 and 28:05; assay: Germination (root length) on germination medium after inositol treatment, without partial drying (Example 5); format: cell-based
Protocol: Then 15, embryos from each concentration of inositol were transferred to germination medium (same as the prematuration medium). The progress of germination was measured by root length after 11, days on germination medium. Germination was fastest for the embryos that had been treated with 0.25, M inositol FIG. 6a. The difference between the root lengths after treatment at the three highest concentrations compared with those at the three lowest concentrations was highly significant by t-test (P<0.001). The experiment was repeated with another replicate of cell-line 61:21. This time, the inositol treatment was for 25, days, the small clumps of embryos were transferred to prematuration medium for 9, days, then 10, embryos were individually planted on prematuration medium and root length was measured 29, days later. […] The length of inositol treatment was 16, days for both lines. Root length was measured 12, or 14, days according to cell-line after transfer of 20, embryos for each concentration of inositol to prematuration medium for germination. For all four experiments of Example 5, root length after treatments of 0.2, to 0.3 M inositol was compared to root length after treatments with 0, to 0.1, M inositol in a paired t-test. […] The inventors have compared on a small scale the germination of inositol-treated embryos with partially dried embryos that have been matured by standard procedures.

[4] = tested on: Mexican Yellow Pine, Pinus oocarpa, line 2; assay: Corresponding inositol experiments with Mexican Yellow Pine (Example 6); format: cell-based; details: inositol series as for Scots pine
[5] = tested on: embryogenic callus of Scots pine, Pinus sylvestris, cell-line 42:6:3; assay: Inositol concentration series on DCR maturation medium and germination on DKM (Example 6); format: cell-based
Text: In order to verify the broad use of the newly invented method, additional conifers have been tested by adapting the methods of Examples 4, and 5. Embryogenic callus of Scots pine, Pinus sylvestris, cell-line 42:6:3, was proliferated on DCR medium (Burg et al. 2007:, J. Exp. Bot. 58: 687-698) containing 2,4-D and BA at the same concentrations as described for spruce. The cells were taken through the early maturation step on DCR medium containing 7.5% polyethylene glycol 400, 3% maltose (replacing sucrose) and 16, mg per liter abscisic acid (Burg et al. 2007:, J. Exp. Bot. 58: 687-698). Samples of cells were then exposed to the same medium containing inositol at concentrations of 0.0005, M 0.1, M, 0.2, M, 0.25, M, 0.3, M or 0.5 M for four weeks. […] Somatic embryogenesis is more problematic in pine than in spruce, so that experiments with mature embryos were on a small scale.

[6] = tested on: embryogenic callus of Norway spruce, cell-lines 61:21, 19:01 and 28:05; assay: Inositol concentration series on maturation medium, embryo quality measurements (Example 4); format: cell-based; details: for root development, indicating premature germination: FIG. 2a-c
Text: To investigate how various inositol concentrations synchronize embryo development and affect the quality of the developing embryos, three cell-lines of embryogenic callus of Norway spruce, cell-lines 61:21, 19:01, and 28:05, were exposed to 1, week on prematuration medium, and matured for 40, days, 36, days or 33, days, respectively on maturation medium with subculturing every two weeks. Small clumps about 1, cm diameter of maturing embryos were then subcultured on maturation medium containing 0.0005, M (here denoted 0, M), 0.06, M, 0.1, M, 0.2, M, 0.25, M or […] inositol.
Twenty individual mature embryos or small plantlets were picked randomly from the plates and the following measurements were taken, for quality measurement, see FIG. 1: width of hypocotyls (1), width across the cotyledons one third of the way down of the hypocotyls (2), width across the cotyledons two third of the way down of the hypocotyls (3) and length of the hypocotyls (4), length of root (5).

[7] = tested on: somatic embryos of Norway spruce, cell line 06:28:05; assay: Mature embryos left 12 days in maturation medium with 0.25 M inositol after particle bombardment (Example 1); format: cell-based
Text: The aim of the experiment was to infect somatic embryos of Norway spruce with a virus using a particle gun according to a routine method (Clapham et al. 2000: Scand. J. For. Res. 15:151-160) and derive plants containing the virus. The original standard bombardment procedure was developed for the transformation of embryogenic cultures consisting of immature embryos (i.e. proembryonic masses or PEMs). In the original protocol, from one to two hours before bombardment with gold particles coated with DNA, the cells are temporarily plasmolyzed with 0.25 M myo-inositol in proliferation medium (Table 4) to reduce damage from the penetration of the gold particles.
In the present experiment, mature embryos instead of PEMs were bombarded. The cultures of cell line 06:28:05, had been matured on standard DKM medium containing ABA for 50, days before bombardment. The embryos were exposed to medium containing 0.25, M inositol for 1-2, hours before bombardment. After bombardment the cells were unintentionally left in maturation medium containing 0.25, M inositol for 12, days, then returned to standard DKM medium containing ABA. […] About 50 plantlets with more or less well developed roots were planted out at once in pots containing mineral wool, which is not usually possible; fifteen of these survived and continued to grow. Sixty-two additional plantlets were grown aseptically on solid standard germination medium (quarter strength Schenk and Hildebrandt) to develop the root system for about 2, months; 51, of these grew well enough to plant out in pots of mineral wool. At least 48, of the plants were growing vigorously a month later. The appearance of these somatic embryo-derived plants encouraged the inventors to believe that mature embryos exposed to the relatively high concentration of inositol in the present experiment were of unusually high quality and ready for germination, without partial drying under high humidity for 2-3, weeks as in the standard procedure.

[8] = tested on: embryogenic cultures of cell-line 06:28:05; assay: Maturation in temporary-immersion bioreactors, DKM+ABA then DKM+0.25 M inositol+ABA, then germination (Example 2); format: cell-based, Norway spruce
Protocol: Several experiments were performed to confirm the observations of Example 1 and to refine the novel culture method. Subsequent experiments confirm that the process of bombardment itself has no effect additional to the inclusion of 0.25, M myo-inositol in the medium. In the present experiment, embryogenic cultures of the same cell-line 06:28:05, were matured in bioreactors that enabled periodic temporary submersion in liquid DKM containing ABA. In two bioreactors, the embryos were matured for 38, days in DKM+ABA, then for 25 days in DKM+0.25, M inositol+ABA. In two control bioreactors, the cultures were maintained continuously in DKM+ABA, without the inositol treatment.
Embryos from the experimental and control reactors were placed on solid germination media in petri dishes mainly to optimize germination media. Plantlet quality was assessed after 6, days' germination as ‘bent’ or ‘not bent’. Whereas only 12, out of 134, (9%) inositol-treated embryos developed into bent plantlets, 50, out of 140, (36%) of the control embryos developed into bent plantlets. The difference was highly significant (P<0.0001) by Fisher's contingency test.

somatic embryo cultures = assay: Embryo culture in medium with plasmolytic or near plasmolytic concentration of sugar alcohol (general findings); format: cell-based; details: for effect on maturation in the embryo cultures: plasmolytic or near plasmolytic concentration
Text: The invention is based on a serendipitous discovery. Gene transfer to spruce somatic embryos using a particle gun was experimented with, using a special medium originally designed for use with gene transfer for embryogenic cultures, containing 0.25, M myo-inositol. The resulting plasmolysis reduces damage during penetration by the gold particles, since it relaxes the tension in the cell membranes and minimizes tearing. By mistake, the somatic embryos were left in this medium for 12, days instead of returning them to the normal proliferation medium as intended. […] Consequently, the cells are first plasmolyzed and then gradually deplasmolyzed.

[9] = high concentrations of inositol
[10] = 0.25 M inositol, after 6 days' germination, out of 134 embryos

OC[C@H]1O[C@@](CO)(O[C@H]2O[C@H](CO)[C@@H](O)[C@H](O)[C@H]2O)[C@@H](O)[C@@H]1O [sucrose, reference compound]
effect on embryo quality ([1]; 0.25 M addition to DKM+ABA, three weeks): clearly detrimental effect | Plates with 10 high quality embryos ([1]; three weeks): 0

O[C@H]1[C@H](O)[C@@H](O)[C@H](O)[C@@H](O)[C@H]1O [inositol, cis-1,2,3,5-trans-4,6-cyclohexanehexol]
condition of plants after three months in stonewool ([2]; 0.25 M inositol, growth chamber, continuous light, 20° C.): vigorous and healthy | longer term effects on subsequent growth [2, 9]: no unexpected longer term effects on subsequent growth | root length after 0.2 to 0.3 M inositol compared with 0 to 0.1 M inositol ([3]; all four experiments of Example 5, paired t-test, P<0.03): significantly greater | germination, measured by root length after 11 days on germination medium ([3]; cell-line 95:61:21, 0.25 M inositol for 17 days, 15 embryos, FIG. 6a): fastest | subsequent root growth on germination medium ([3]; cell-lines 19:01 and 28:05, 16 days inositol, root length at 12 or 14 days, FIGS. 6c, 6d): advantages of treatment with high concentrations of inositol for subsequent root growth | rooting, root length measured 29 days after planting on prematuration medium ([3]; replicate of cell-line 61:21, 0.25 M inositol for 25 days, 10 embryos, FIG. 6b): rooting fastest | germination compared with partially dried embryos matured by standard procedures ([3]; small scale comparison): shoots grow faster and more vigorously | outcome compared with the Scots pine experiments [4]: showed the same tendencies | signs of premature germination (hypocotyl extension, greening of cotyledons) ([5]; 0.0005 M and 0.1 M inositol, four weeks): some of the embryos showed characteristic signs of premature germination | maturation and precocious germination ([5]; 0.2-0.3 M inositol, four weeks): precocious germination was inhibited | proportion of embryos that developed healthy roots on the germination medium, compared with 0.0005 M ([5]; 0.25 M inositol): higher proportion | signs of stress (red colour under the cotyledons) within two days of germination on DKM ([5]; 0.25 M inositol): no such signs of stress | condition of embryos compared with those exposed to 0.0005 M inositol ([5]; 0.25 M inositol, groups of ten embryos germinated on DKM): in better condition | effect on further maturation of the embryos ([5]; 0.5 M inositol): inhibited further maturation of the embryos | effect on embryo development (summary) ([6]; 0.2-0.3 M inositol): synchronized development of the embryos by inhibiting germination but not embryo development | root development, indicating premature germination ([6]; 0.2-0.3 M inositol): inhibited almost completely | ratio of width one third down the hypocotyl (2) to width two thirds down the hypocotyl (3) ([6]; 0.2-0.3 M inositol, FIG. 5a-c): just above unity | coefficient of variation of width across the cotyledons (minimum) ([6]; cell-line 28:05, 0.25 M inositol, FIG. 4): 35% | inositol concentration at which the coefficient of variation of hypocotyl length is at a minimum (synchrony maximal) ([6]; cell-line 61:21, FIG. 3): 0.25 M | root development, indicating premature germination ([6]; low concentrations of inositol): present | variation in hypocotyl length ([6]; the other two cell-lines (19:01, 28:05), higher concentrations of inositol): reduced markedly | embryo appearance compared with embryos from the standard protocol ([7]; 0.25 M inositol): strikingly more uniform and broader in relation to length | plantlets that survived and continued to grow after being planted out at once in pots containing mineral wool ([7]; 0.25 M inositol 12 days, of about 50 plantlets planted out): fifteen | plantlets that grew well enough to plant out in pots of mineral wool ([7]; 0.25 M inositol 12 days, of sixty-two plantlets grown about 2 months on solid germination medium): 51 | plants growing vigorously a month later ([7]; 0.25 M inositol 12 days, of the 51 planted out in mineral wool): At least 48 | germination after return to standard DKM medium containing ABA ([7]; 0.25 M inositol for 12 days, observed after 8 days on standard DKM+ABA): many embryos had germinated and formed healthy well developed small plantlets | embryos of good quality relative to mannitol plus sorbitol ([1]; 0.25 M inositol vs 0.125 M mannitol plus 0.125 M sorbitol): about twice | Plates with 10 high quality embryos ([1]; three weeks): 6 | embryos that developed into bent plantlets (number) [8, 10]: 12 | embryos that developed into bent plantlets (percent) [8, 10]: 9% | embryo appearance compared with controls ([8]; 38 days DKM+ABA then 25 days DKM+0.25 M inositol+ABA, bioreactors): strikingly more uniform, and broader in relation to length | yield of high-quality embryos relative to untreated controls ([8]; bioreactor experiment, 0.25 M inositol): six to eight | need for partial drying before germination (somatic embryo cultures; [9]): require no further partial drying before germination | quality of mature embryos formed (somatic embryo cultures; high concentrations of inositol (myo-inositol) in the culture media): more robust mature embryos with improved rooting capabilities | effect on maturation in the embryo cultures (somatic embryo cultures): induce synchronous maturation

OC[C@@H](O)[C@@H](O)[C@H](O)[C@H](O)CO [mannitol]
effect on maturation in the embryo cultures (somatic embryo cultures): induce synchronous maturation

OC[C@@H](O)[C@@H](O)[C@H](O)[C@@H](O)CO [sorbitol]
effect on maturation in the embryo cultures (somatic embryo cultures): induce synchronous maturation
